Converted amounts (≈) assume the structure as drawn. Like-named read-outs stand apart in the source and are kept apart here. Some results are limits rather than exact numbers.

Experiment in all cases: Antibacterial activity (MIC), agar dilution
Common to all, as to type: cell-based
For orientation: In agar dilution, organisms are placed on agar that contains the substance at set levels.

In one experiment the test system is St. aureus F-137*. To be noted: Staphylococcus aureus, 20 h, St. aureus F-137, penicillinase-producing; 10^6 cells per ml; read-out: MIC. An excerpt:
(§1) The amount of bacteria inoculated was 10^4 cells per plate (10^6 cells per ml).
(§2) * Penicillinase-producing bacteria

In another experiment the test system is Kl. pneumoniae Y-4*. To be noted: Klebsiella pneumoniae, 20 h, Kl. pneumoniae Y-4, penicillinase-producing; 10^6 cells per ml; read-out: MIC.
Excerpt: as §1, §2

In a further experiment the test system is E. coli TK-3*. The conditions noted are these: Escherichia coli, 20 h.
Excerpt: as §1, §2

For the next experiment, the system named is Ps. aeruginosa GN3379*. To be noted: Pseudomonas aeruginosa, 20 h; Ps. aeruginosa GN3379, penicillinase-producing; 10^6 cells per ml; read-out: MIC.
Excerpt: as §1, §2

For the next experiment, the system named is Pro. vulgaris GN76**. To be noted: Proteus vulgaris.
Excerpt: as §1
(§3) ** Cephalospolinase-producing bacteria

The next experiment concerns E. coli GN5482**. The conditions noted are these: Escherichia coli, 20 h; E. coli GN5482, cephalospolinase-producing; 10^6 cells per ml; read-out: MIC.
Excerpt: as §1, §3

The next experiment has as its system Ps. aeruginosa GN918**. The conditions noted are these: Pseudomonas aeruginosa, 20 h; Ps. aeruginosa GN918, cephalospolinase-producing; 10^6 cells per ml; read-out: MIC.
Excerpt: as §1, §3

A further experiment concerns Ps. aeruginosa IFO3445. The conditions noted are these: Pseudomonas aeruginosa; Ps. aeruginosa IFO3445; 10^6 cells per ml; 37° C., 20 hours; read-out: MIC.
Excerpt: as §1

For the next experiment, the system named is St. aureus FDA209P. To be noted: Staphylococcus aureus, FDA209P, 20 h, St. aureus FDA209P; 10^6 cells per ml; 37° C., 20 hours; read-out: MIC.
Excerpt: as §1

The next experiment has as its system Pro. vulgaris GN3027. The conditions noted are these: Proteus vulgaris, GN3027, 20 h, Pro. vulgaris GN3027; 10^6 cells per ml; 37° C., 20 hours; read-out: MIC.
Excerpt: as §1

Another experiment concerns E. coli TK-111. To be noted: Escherichia coli, TK111, 20 h.
Excerpt: as §1

Another experiment has as its system Pro. mirabilis T-111. To be noted: Proteus mirabilis, 37° C.
Excerpt: as §1

Another experiment deals with Ps. aeruginosa S-68. The conditions noted are these: Pseudomonas aeruginosa, S68; Ps. aeruginosa S-68; 10^6 cells per ml; 37° C., 20 hours; read-out: MIC.
Excerpt: as §1

The next experiment relates to Pro. morganii T-216. To be noted: Morganella morganii, 37° C.
Excerpt: as §1

The next experiment has as its system Kl. pneumoniae Y-41. To be noted: Klebsiella pneumoniae, Y41, 10^6 cells per ml, 37° C., 20 hours, read-out: MIC.
Excerpt: as §1

A further experiment deals with Aci. antitratus A-6. To be noted: 20 h, Aci. antitratus A-6; 10^6 cells per ml; 37° C., 20 hours; read-out: MIC.
Excerpt: as §1

The next experiment relates to Kl. pneumoniae Y-50. The conditions noted are these: Klebsiella pneumoniae, Y50, 20 h, 10^6 cells per ml, 37° C., read-out: MIC.
Excerpt: as §1

The next experiment relates to E. coli NIHJ JC-2. The conditions noted are these: Escherichia coli, NIHJJC2, 20 h.
Excerpt: as §1

In the next experiment the test system is Ent. cloacae IID977. The conditions noted are these: Enterobacter cloacae, IID977, 20 h.
Excerpt: as §1

[1] abbreviates: E. coli TK-3, penicillinase-producing, 10^6 cells per ml, read-out: MIC.
Setting [2] is: 20 h, Pro. vulgaris GN76, cephalospolinase-producing, 10^6 cells per ml, read-out: MIC.
Where [3] appears, read: E. coli TK-111, 10^6 cells per ml, 37° C., 20 hours, read-out: MIC.
Setting [4] is: T216, 10^6 cells per ml, 20 hours, read-out: MIC.
Setting [5] is: E. coli NIHJ JC-2, 10^6 cells per ml, 37° C., 20 hours, read-out: MIC.
[6] abbreviates: Ent. cloacae IID977, 10^6 cells per ml, 37° C., 20 hours, read-out: MIC.

By MIC is commonly meant the least concentration at which growth counts as inhibited. Turning to `O=C(O)c1cn(-c2ccc(O)cc2)c(-c2cc3ccccc3s2)cc1=O`, the minimal inhibitory concentration (MIC) in the experiment with St. aureus F-137* is at most 0.05 µg/mL; in the experiment on Kl. pneumoniae Y-4* it was 0.78 µg/mL (≈ 2.15 µM); in the experiment on E. coli TK-3* (setting [1]) it was 0.39 µg/mL (≈ 1.07 µM); in the experiment on Ps. aeruginosa GN3379* it was 3.13 µg/mL (≈ 8.61 µM); with Pro. vulgaris GN76** (setting [2]), 0.2 µg/mL (≈ 0.55 µM); in the experiment on E. coli GN5482**, at most 0.05 µg/mL. Besides, the MIC is 3.13 µg/mL (≈ 8.61 µM) in the experiment with Ps. aeruginosa GN918**; 3.13 µg/mL (≈ 8.61 µM) in the experiment with Ps. aeruginosa IFO3445; at most 0.05 µg/mL with St. aureus FDA209P; at most 0.05 µg/mL in the experiment on Pro. vulgaris GN3027; at most 0.05 µg/mL with E. coli TK-111 (setting [3]); 0.78 µg/mL (≈ 2.15 µM) with Pro. mirabilis T-111 (T111, 10^6 cells per ml, 20 hours, read-out: MIC). The MIC in the experiment with Ps. aeruginosa S-68 was determined as 0.78 µg/mL (≈ 2.15 µM); in the experiment on Pro. morganii T-216 (setting [4]), 0.39 µg/mL (≈ 1.07 µM); in the experiment on Kl. pneumoniae Y-41, 0.78 µg/mL (≈ 2.15 µM); in the experiment with Aci. antitratus A-6, 0.2 µg/mL (≈ 0.55 µM); in the experiment on Kl. pneumoniae Y-50, 0.2 µg/mL (≈ 0.55 µM); in the experiment on E. coli NIHJ JC-2 (setting [5]) it was 0.2 µg/mL (≈ 0.55 µM). The minimal inhibitory concentration (MIC) with Ent. cloacae IID977 (setting [6]) worked out at 0.39 µg/mL (≈ 1.07 µM).

With `CN(C)c1ccc(-c2cc(=O)c(C(=O)O)cn2-c2ccc(F)cc2O)cc1`, the minimal inhibitory concentration (MIC) in the experiment on St. aureus F-137* was 0.2 µg/mL (≈ 0.543 µM); in the experiment on Kl. pneumoniae Y-4* it was 6.25 µg/mL (≈ 17 µM); in the experiment with E. coli TK-3*, 1.56 µg/mL (≈ 4.23 µM); with Ps. aeruginosa GN3379*, 25 µg/mL (≈ 67.9 µM); in the experiment on Pro. vulgaris GN76** (GN76, 20 h) it was 1.56 µg/mL (≈ 4.23 µM); in the experiment on E. coli GN5482**, at most 0.05 µg/mL. The MIC is 50 µg/mL (≈ 136 µM) with Ps. aeruginosa GN918**; 12.5 µg/mL (≈ 33.9 µM) in the experiment on Ps. aeruginosa IFO3445; 0.2 µg/mL (≈ 0.543 µM) in the experiment with St. aureus FDA209P; 0.39 µg/mL (≈ 1.06 µM) in the experiment with Pro. vulgaris GN3027; 1.56 µg/mL (≈ 4.23 µM) against E. coli TK-111; 6.25 µg/mL (≈ 17 µM) against Pro. mirabilis T-111 (T111, 20 h, 10^6 cells per ml). Also, the MIC was 12.5 µg/mL (≈ 33.9 µM) in the experiment with Ps. aeruginosa S-68; 3.13 µg/mL (≈ 8.5 µM) in the experiment on Pro. morganii T-216 (setting [4]); 6.25 µg/mL (≈ 17 µM) in the experiment on Kl. pneumoniae Y-41; 0.78 µg/mL (≈ 2.12 µM) in the experiment on Aci. antitratus A-6; 1.56 µg/mL (≈ 4.23 µM) in the experiment with Kl. pneumoniae Y-50; 0.78 µg/mL (≈ 2.12 µM) with E. coli NIHJ JC-2 (setting [5]). This molecule also came in with an MIC in the experiment on Ent. cloacae IID977 of 1.56 µg/mL (≈ 4.23 µM).

For `O=C(O)c1cn(-c2ccc(F)cc2)c(-c2sccc2-c2ccc([N+](=O)[O-])cc2)cc1=O`, the MIC with St. aureus F-137* is 0.1 µg/mL (≈ 0.229 µM); in the experiment with Kl. pneumoniae Y-4*, 6.25 µg/mL (≈ 14.3 µM); in the experiment on E. coli TK-3* (setting [1]), 3.13 µg/mL (≈ 7.17 µM); with Ps. aeruginosa GN3379*, 25 µg/mL (≈ 57.3 µM); in the experiment with Pro. vulgaris GN76** (setting [2]), 3.13 µg/mL (≈ 7.17 µM); in the experiment on E. coli GN5482** it was 0.2 µg/mL (≈ 0.458 µM). In addition, the MIC stood at 12.5 µg/mL (≈ 28.6 µM) in the experiment on Ps. aeruginosa GN918**; 12.5 µg/mL (≈ 28.6 µM) in the experiment on Ps. aeruginosa IFO3445; 0.28 µg/mL (≈ 0.642 µM) with St. aureus FDA209P; 0.39 µg/mL (≈ 0.894 µM) in the experiment with Pro. vulgaris GN3027; 0.2 µg/mL (≈ 0.458 µM) in the experiment on E. coli TK-111 (setting [3]); 6.25 µg/mL (≈ 14.3 µM) against Pro. mirabilis T-111 (T111, 20 h, 10^6 cells per ml). Besides, the MIC with Ps. aeruginosa S-68 is 12.5 µg/mL (≈ 28.6 µM); in the experiment with Pro. morganii T-216 (T216, 20 h, 10^6 cells per ml), 1.56 µg/mL (≈ 3.57 µM); in the experiment on Kl. pneumoniae Y-41, 6.25 µg/mL (≈ 14.3 µM); with Aci. antitratus A-6, 0.78 µg/mL (≈ 1.79 µM); in the experiment with Kl. pneumoniae Y-50, 1.56 µg/mL (≈ 3.57 µM); in the experiment with E. coli NIHJ JC-2, 1.56 µg/mL (≈ 3.57 µM). For the same molecule, in the experiment with Ent. cloacae IID977 (setting [6]), the MIC was 3.13 µg/mL (≈ 7.17 µM).

Turning to `CN(C)c1ccc(-c2cc(=O)c(C(=O)O)cn2-c2cccc(O)c2)cc1`, the minimum inhibitory concentration (MIC) was 0.2 µg/mL (≈ 0.571 µM) with St. aureus F-137*; 3.13 µg/mL (≈ 8.93 µM) in the experiment with Kl. pneumoniae Y-4*; 0.39 µg/mL (≈ 1.11 µM) with E. coli TK-3* (setting [1]); 6.25 µg/mL (≈ 17.8 µM) with Ps. aeruginosa GN3379*; 0.78 µg/mL (≈ 2.23 µM) with Pro. vulgaris GN76** (setting [2]); at most 0.05 µg/mL in the experiment on E. coli GN5482**. Also, the MIC with Ps. aeruginosa GN918** is 12.5 µg/mL (≈ 35.7 µM); with Ps. aeruginosa IFO3445, 12.5 µg/mL (≈ 35.7 µM); in the experiment on St. aureus FDA209P, 0.2 µg/mL (≈ 0.571 µM); with Pro. vulgaris GN3027, 0.2 µg/mL (≈ 0.571 µM); in the experiment on E. coli TK-111 (setting [3]), 0.1 µg/mL (≈ 0.285 µM); against Pro. mirabilis T-111 (T111, 20 h, 10^6 cells per ml), 3.13 µg/mL (≈ 8.93 µM). For the same molecule, the minimal inhibitory concentration (MIC) in the experiment on Ps. aeruginosa S-68 came out at 6.25 µg/mL (≈ 17.8 µM); in the experiment on Pro. morganii T-216 (T216, 20 h, 10^6 cells per ml), 1.56 µg/mL (≈ 4.45 µM); in the experiment on Kl. pneumoniae Y-41 it was 1.56 µg/mL (≈ 4.45 µM); in the experiment on Aci. antitratus A-6 it was 0.39 µg/mL (≈ 1.11 µM); in the experiment on Kl. pneumoniae Y-50 it was 0.39 µg/mL (≈ 1.11 µM); with E. coli NIHJ JC-2 (setting [5]) it was 0.39 µg/mL (≈ 1.11 µM). Further, in the experiment on Ent. cloacae IID977 (setting [6]), the MIC was 0.78 µg/mL (≈ 2.23 µM).

The values are drawn from patent publication US4698352A, “4-oxo-1,4-dihydronicotinic acid derivatives, salts thereof, and antibacterial agents containing the same” (Toyama Chemical Co., Ltd., priority 1982, dated 1987).
